According to patent US10335388B2, “Combination therapy of a HIF-2-alpha inhibitor and an immunotherapeutic agent and uses thereof” (PELOTON THERAPEUTICS, INC., priority 2015, dated 2019):
Where two headings read alike, the source gives them in different places.

Experiments:
[1] = biological target: T1, HIF-2α HIS TAG-PASB Domain (Homo sapiens, UniProt Q99814); assay: HIF-2α Scintillation Proximity Assay (SPA); format: binding; conditions: displacement of tritiated probe Compound 183
T1 construct: 100 nM HIF-2α HIS TAG-PASB Domain
T1 sequence (Q99814 240-350 limits assumed): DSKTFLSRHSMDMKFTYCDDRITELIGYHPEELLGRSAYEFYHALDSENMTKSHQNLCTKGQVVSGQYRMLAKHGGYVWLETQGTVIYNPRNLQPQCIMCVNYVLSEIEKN
Protocol: The total assay volume was about 100 μL in the following configuration: 2 μL compound in 100% DMSO, 88 μL buffer with protein and probe and 10 μL of SPA beads. […] The percent inhibition was determined and IC50 values were calculated using the Dotmatics system based on the following equation: % inhibition=[(high control−sample)/(high control−low control)]×100.

786-O-Hif-Luc cells = assay: Luciferase assay (HIF responsive element reporter); conditions: 24 h
Protocol: A pool of infected cells were then selected against 2 μg/mL of puromycin (P8833, Sigma) for 10 days followed by limited dilution to select single clones.
Each concentration was tested in triplicate. After about 24 hours, luciferase activity was determined using ONE-Glo Luciferase Assay Reagent (E6110, Promega) following the manufacturer's recommended procedure. EC50 were calculated using Dotmatics software.

786-O cells = assay: VEGF ELISA assay; format: cell-based; conditions: Homo sapiens, 786-0
Protocol: Each concentration was plated in duplicate. About 20 hours later, medium was removed by suction and each well was supplied with 180 μL of growth medium. About 20 µl freshly-made 10× compound stocks were added to each well. […] The EC50 was calculated by GraphPad Prism using the dose-response-inhibition (four parameter) equation. The cell-seeded plate was then subjected to CellTiter-Glo luminescence cell viability assay (Promega) by adding 50 μL of Celltiter Glo reagent into each well and shaking the plate for 8 minutes at 550 rpm (Thermomixer R, Eppendorf) then the luminescence signal immediately read in a plate reader (3 second delay, 0.5 second/well integration time, Synergy 2 multi Detection Microplate reader).

[2] = system: CT26.WT mouse carcinoma cells; assay: Mouse colon CT26 syngeneic tumor model; conditions: BALB/c mice, after 20 days of treatment; Compound 163 30 mg/kg BID, α-CTLA-4 or IgG control 10 mg/kg BIW
[3] = system: B16-F10 mouse melanoma cells; assay: Mouse melanoma B16-F10 syngeneic tumor model; conditions: C57BL/6 mice, after 14 days of treatment; Compound 163 30 mg/kg BID, α-PD-1 or IgG control 10 mg/kg BIW
[4] = read-out: Mean Luciferase EC50 (nM), 786-O-Hif-Luc cells, about 24 hours
[5] = read-out: Mean Luciferase EC50 (nM)

IC50 [1] [nM] | EC50 (786-O-Hif-Luc cells; [5]) [nM] | SMILES | other results
> 1000 | – | O=S(=O)(c1ccc(OC2CCNCC2)c2c1C(O)C(F)(F)C2)C(F)(F)F (stereo not shown) [Compound 606] | –
> 1000 | – | CCCOc1ccc(C2CC2)c2c1CC(F)(F)C2O (stereo not shown) [Compound 685] | –
250 to 1000 | – | CC(=NO)c1c(S(=O)(=O)C(F)(F)F)ccc(Oc2cc(F)cc(Cl)c2)c1Br [Compound 106] | –
– | – | O=S(=O)(CF)c1ccc(OC2CC(F)C2)c2c1[C@H](O)C(F)(F)[C@@H]2F (stereo partly shown) [Compound 742] | EC50 (786-O-Hif-Luc cells; [4]): < 50 nM; EC50 (786-O cells): < 50 nM
< 50 | – | O=S(=O)(CF)c1ccc(O[C@H]2C[C@H](F)C2)c2c1[C@H](O)C(F)(F)[C@@H]2F [Compound 742] | –
50 to 249 | – | N#Cc1cc(F)cc(Oc2ccc3c(c2C(F)F)[C@@H](N)C(F)(F)S3(=O)=O)c1 [Compound 387] | –
< 50 | – | CS(=O)(=O)c1ccc(OC2CCOCC2)c2c1[C@H](O)C(F)(F)[C@@H]2F [Compound 796] | EC50 (786-O-Hif-Luc cells; [4]): 250 to 1000 nM
< 50 | – | O=S(=O)(c1ccc(OC[C@@H]2CC2(F)F)c2c1[C@H](O)C(F)(F)C2)C(F)(F)F [Compound 728] | EC50 (786-O-Hif-Luc cells; [4]): < 50 nM
– | 50 to 249 | CS(=O)(=O)c1ccc(Oc2cc(F)cc(C#N)c2)c2c1C(O)C(F)(F)C2 (stereo not shown) [Compound 223] | –
– | 50 to 249 | CNS(=O)(=O)c1ccc(Oc2cc(F)cc(F)c2)c2c1[C@H](O)C(F)(F)C2 [Compound 251] | –
– | – | N#Cc1cc(F)cc(Oc2ccc(S(=O)(=O)C(F)F)c3c2CCC3O)c1 (stereo not shown) [Compound 78] | EC50 (786-O cells): 250 to 1000 nM
– | 50 to 249 | N#Cc1cc(F)cc(Oc2ccc(S(=O)(=O)C(F)(F)F)c3c2CC(F)(F)[C@H]3N)c1 [Compound 290] | –
– | – | O=S(=O)(c1ccc(Oc2cc(F)cc(Cl)c2)c2c1C(O)CC2)C(F)F (stereo not shown) [Compound 17] | EC50 (786-O cells): 50 to 249 nM
> 1000 | – | O=S(=O)(c1ccc(-c2cccc(O)c2)c2c1[C@H](O)C(F)(F)C2)C(F)(F)F [Compound 564] | –
– | 50 to 249 | CS(=O)(=O)c1ccc(Oc2cc(F)cc(C#N)c2)c2c1[C@H](N)C(F)(F)C2 [Compound 165] | –
– | < 50 | N#Cc1cc(Cl)cc(Oc2ccc(S(=O)(=O)CF)c3c2CC(F)(F)[C@H]3O)c1 [Compound 167] | –
< 50 | – | CS(=O)(=O)c1ccc(Oc2cc(F)cc(F)c2)c2c1C(O)C(F)(F)C2 (stereo not shown) [Compound 159] | EC50 (786-O-Hif-Luc cells; [4]): < 50 nM; EC50 (786-O cells): < 50 nM
> 1000 | – | O[C@H]1c2c(C(F)(F)F)ccc(OC(F)F)c2CC1F (stereo partly shown) [Compound 671] | –
– | 50 to 249 | CNS(=O)(=O)c1ccc(Oc2cc(F)cc(C#N)c2)c2c1[C@H](O)C(F)(F)C2 [Compound 254] | –
250 to 1000 | – | CS(=O)(=O)c1ccc(OC2CCOCC2)c2c1[C@H](O)C(F)(F)C2 [Compound 775] | EC50 (786-O-Hif-Luc cells; [4]): 250 to 1000 nM
250 to 1000 | – | N#Cc1cc(F)cc(Oc2ccc(S(=O)(=O)C(F)F)c3c2CCC3F)c1 (stereo not shown) [Compound 202] | EC50 (786-O-Hif-Luc cells; [4]): > 1000 nM
– | 50 to 249 | N#Cc1cc(F)cc(Oc2ccc(S(N)(=O)=O)c3c2CC(F)(F)[C@H]3O)c1 [Compound 252] | –
– | > 1000 | CS(=O)(=O)c1ccc(Oc2cc(F)cc(C#N)c2)c2c1[C@@H](O)C(F)(F)C2 [Compound 226] | –
< 50 | – | N#C[C@H]1C[C@H](Oc2ccc(S(=O)(=O)C(F)(F)F)c3c2CC(F)(F)C3O)C1 (stereo partly shown) [Compound 786] | EC50 (786-O-Hif-Luc cells; [4]): < 50 nM
> 1000 | – | O=S(=O)(c1ccc(OC2CCCNC2)c2c1C(O)C(F)(F)C2)C(F)(F)F (stereo not shown) [Compound 797] | –
50 to 249 | – | O[C@H]1c2c(C(F)(F)F)ccc(OCC(F)F)c2C[C@H]1F [Compound 696] | EC50 (786-O-Hif-Luc cells; [4]): 50 to 249 nM
– | 250 to 1000 | N#Cc1cc(F)cc(Oc2ccc(S(N)(=O)=O)c3c2[C@H](F)C(F)(F)[C@H]3O)c1 [Compound 339] | –

IC50 [1] [nM] | EC50 (786-O-Hif-Luc cells; [5]) [nM] | SMILES | other results
– | < 50 | NS(=O)(=O)c1ccc(Oc2cc(F)cc(F)c2)c2c1[C@H](O)C(F)(F)C2 [Compound 256] | –
50 to 249 | – | N#Cc1c(Oc2cc(F)cc(Cl)c2)ccc(S(=O)(=O)C(F)(F)F)c1F [Compound 153] | –
– | < 50 | N#Cc1cc(F)cc(Oc2ccc(S(N)(=O)=O)c3c2[C@@H](F)C(F)(F)[C@H]3O)c1 [Compound 338] | –
– | 50 to 249 | N#Cc1cc(F)cc(Oc2ccc(S(=O)(=O)C(F)(F)F)c3c2CC[C@H]3O)c1 [Compound 57] | –
250 to 1000 | – | O=S(=O)(c1ccc(OC2CC(O)C2)c2c1[C@H](O)C(F)(F)C2)C(F)(F)F (stereo partly shown) [Compound 644] | EC50 (786-O-Hif-Luc cells; [4]): 250 to 1000 nM
50 to 249 | – | CCCOc1ccc(S(=O)(=O)C(F)F)c2c1CC(F)(F)[C@H]2O [Compound 676] | EC50 (786-O-Hif-Luc cells; [4]): 50 to 249 nM
> 1000 | – | O=S(=O)(c1ccc(O[C@@H]2CCCc3cn[nH]c32)c2c1[C@H](O)C(F)(F)C2)C(F)(F)F [Compound 729] | –
– | – | N#Cc1ccc(Oc2cc(F)cc(F)c2)c2c1[C@H](O)C(F)(F)C2 [Compound 67] | EC50 (786-O cells): 50 to 249 nM
– | < 50 | CS(=O)(=O)c1ccc(Oc2cc(F)cc(C#N)c2)c2c1C(O)C(F)C2 (stereo not shown) [Compound 232] | –
< 50 | – | O=S(=O)(c1ccc(OCC(F)F)c2c1[C@H](O)C(F)(F)C2)C(F)F [Compound 677] | EC50 (786-O-Hif-Luc cells; [4]): 50 to 249 nM
– | < 50 | CS(=O)(=O)c1ccc(Oc2cc(F)cc(C#N)c2)c2c1[C@H](O)C(F)(F)C2 [Compound 163, (S)-3-((2,2-Difluoro-1-hydroxy-7-(methylsulfonyl)-2,3-dihydro-1H-inden-4-yl)oxy)-5-fluorobenzonitrile] | Tumor size (mm^3) Mean ± SEM [2]: 1612 ± 305 mm^3; Tumor size (mm^3) Mean ± SEM [3]: 2133.89 ± 306.44 mm^3
– | 250 to 1000 | CS(=O)(=O)c1ccc(Oc2cc(F)cc(C#N)c2)c2c1[C@H](O)[C@@H](F)C2 [Compound 271] | –
– | 250 to 1000 | N#Cc1cccc(Oc2ccc(S(=O)(=O)C(F)F)c3c2CC[C@H]3O)c1 [Compound 156] | –
– | 250 to 1000 | O=S(=O)(c1ccc(Oc2cc(F)cc(Cl)c2)c(Cl)c1CO)C(F)F [Compound 41] | EC50 (786-O cells): 250 to 1000 nM
– | < 50 | [2H]C([2H])([2H])S(=O)(=O)c1ccc(Oc2cc(F)cc(C#N)c2)c2c1[C@]([2H])(O)C(F)(F)C2 [Compound 229] | –
– | < 50 | [2H][C@]1(O)c2c(S(C)(=O)=O)ccc(Oc3cc(F)cc(C#N)c3)c2CC1(F)F [Compound 247] | –
50 to 249 | – | CS(=N)(=O)c1ccc(Oc2cc(F)cc(F)c2)c2c1[C@H](O)C(F)(F)C2 (stereo partly shown) [Compound 192] | EC50 (786-O-Hif-Luc cells; [4]): 250 to 1000 nM
– | < 50 | CS(=O)(=O)c1ccc(Oc2cc(F)cc(C#N)c2)c2c1[C@H](O)[C@H](F)C2 [Compound 231] | –
– | < 50 | CS(=O)(=O)c1ccc(Oc2cc(Cl)cc(C#N)c2)c2c1[C@H](O)C(F)(F)C2 [Compound 234] | EC50 (786-O cells): 50 to 249 nM
50 to 249 | – | CS(=O)(=O)c1ccc(OC[C@H]2CC2(F)F)c2c1[C@H](O)C(F)(F)[C@@H]2F [Compound 769] | EC50 (786-O-Hif-Luc cells; [4]): 250 to 1000 nM
– | – | O=S(=O)(c1ccc(Oc2cc(F)cc(Cl)c2)c2c1[C@H](O)CC2)C(F)F [Compound 1] | EC50 (786-O cells): 250 to 1000 nM
– | 50 to 249 | CCS(=O)(=O)c1ccc(Oc2cc(F)cc(C#N)c2)c2c1[C@H](O)C(F)(F)C2 [Compound 206] | –
> 1000 | – | CC(C)(C)OC(=O)N[C@H]1C[C@@H](Oc2ccc(S(=O)(=O)C(F)(F)F)c3c2CC(F)(F)[C@H]3O)C1 [Compound 722] | EC50 (786-O-Hif-Luc cells; [4]): > 1000 nM
– | 250 to 1000 | C[C@H]1C[C@@H](O)c2c(S(=O)(=O)C(F)F)ccc(Oc3cc(F)cc(Cl)c3)c21 [Compound 7a] | –
50 to 249 | – | O=S(=O)(c1ccc(Oc2cc(F)cc(Cl)c2)c(Br)c1C=NO)C(F)(F)F [Compound 107] | EC50 (786-O-Hif-Luc cells; [4]): 250 to 1000 nM
– | < 50 | N#Cc1cncc(Oc2ccc(S(=O)(=O)C(F)(F)F)c3c2CC(F)(F)[C@H]3O)c1 [Compound 235] | –
> 1000 | – | N#CC1CCc2c(OCC(F)F)ccc(C(F)(F)F)c21 (stereo not shown) [Compound 691] | –

SMILES | IC50 [1] [nM] | EC50 (786-O-Hif-Luc cells; [5]) [nM] | other results
CS(=O)(=O)c1ccc(Oc2cc(F)cc(C#N)c2)c2c1[C@H](O)[C@H](F)[C@@H]2F [Compound 289, 3-[(1S,2S,3R)-2,3-difluoro-1-hydroxy-7-methylsulfonyl-indan-4-yl]oxy-5-fluoro-benzonitrile] | – | < 50 | –
N#Cc1cc(F)cc(Oc2ccc(S(=O)(=O)C(F)F)c3c2CC[C@H]3O)c1 [Compound 155] | – | 50 to 249 | EC50 (786-O cells): 50 to 249 nM
O=S(=O)(c1ccc(Oc2cc(F)cc(Cl)c2)c(C(F)F)c1)C(F)(F)F [Compound 124] | – | 250 to 1000 | EC50 (786-O cells): 250 to 1000 nM
